kinact/KI data for two molecules are collected here from US5100880A, “Novel betalactam elastase inhibitors containing phosphorous acid derivatives at the 4-position of the 2-azetidinone” (Merck & Co., Inc., priority 1991, dated 1992).

In this experiment the target is T1, human granulocyte elastase (Homo sapiens, UniProt P08246).
T1 construct: Crude extract of human polymorphonuclear leukocytes (PMN) containing elastase activity; endogenous in cells; host or cells: human polymorphonuclear leukocytes (PMN), crude extract
T1 sequence (P08246 30-247 limits assumed): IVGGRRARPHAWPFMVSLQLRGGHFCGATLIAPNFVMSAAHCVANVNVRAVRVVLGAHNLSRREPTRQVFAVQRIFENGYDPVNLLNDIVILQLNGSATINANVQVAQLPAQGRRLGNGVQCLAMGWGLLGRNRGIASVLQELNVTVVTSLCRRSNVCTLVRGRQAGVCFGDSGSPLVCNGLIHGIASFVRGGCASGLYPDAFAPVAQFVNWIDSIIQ
As to the kind of experiment: Inhibition of human polymorphonuclear leukocyte elastase via hydrolysis of Boc-AAPAN or Boc-AAPVN. It counts as biochemical. The settings on record: crude extract of human PMN; 0.05M TES buffer pH 7.5; substrate 0.2 mM Boc-AAPAN or Boc-AAPVN; read-out: kobs /I, second order rate constant for inactivation of the enzyme. The protocol:
Enzyme Assays for the Inhibition of Human Polymorphonuclear Leukocyte Elastase Via Hydrolysis of N-t-Boc-alanyl-alanyl-prolylalanine-p-nitroanilide (Boc-AAPAN) or N-t-Boc-alanyl-prolylvaline-p-nitroanilide (Boc-AAPVN) Reagent
0.05M TES (N-tris[hydroxymethyl]methyl-2-amino-ethanesulfonic acid) Buffer, pH 7.5.
0.2 mM Boc-AAPAN or Boc-AAPVN.
To prepare substrate, the solid was first dissolved in 10.0 ml DMSO. Buffer at pH 7.5 was then added to a final volume of 100 ml.
Crude extract of human polymorphonuclear leukocytes (PMN) containing elastase activity.
Inhibitors (azetidinones) to be tested dissolved in DMSO just before use.
To 1.0 ml of 0.2 mM Boc-AAPAN in a cuvette, 0.01-0.1 ml of DMSO with or without inhibitor was added. After mixing, a measurement was taken at 410 mμ to detect any spontaneous hydrolysis due to presence of test compound. 0.05 Milliliters of PMN extract was then added and the ΔOD/min at 410 mμ was measured and recorded. Beckman model 35 spectrophotometer was used.
Results are also expressed as Ki, the micromolar concentration of the inhibitor (μM) giving 50% of the control enzyme activity; or as ^k obs/I which is the second order rate constant in per mole per second for inactivation of the enzyme.
The elastase activity in the crude PMN extract may vary from one preparation to another. […]

Take `CCCC(NC(=O)N1C(=O)C(CC)(CC)C1Oc1ccc(CP(=O)(OCC)OCC)cc1)c1ccc(C)cc1` [Example 1, (4S)-3,3-Diethyl-1-[(R)-α-n-propyl(4-methyl)-benzylaminocarbonyl)]-4-[4-(diethoxyphosphinylmethyl)-phenoxy]-azetidin-2-one]: the kinact/KI was 1.2e+06 M⁻¹ s⁻¹.

In the case of `CCCC(NC(=O)N1C(=O)C(CC)(CC)C1Oc1ccc(CP(=O)(O)O)cc1)c1ccc(C)cc1` [Example 2, (4S)-3,3-Diethyl-1-[(R)-α-n-propyl-(4-methyl)-benzylaminocarbonyl)]-4-[4-(dihydroxyphosphinylmethyl)phenoxy]-azetidin-2-one], the kinact/KI was 220000 M⁻¹ s⁻¹.
